# PubChem BioAssay AID192 (DTP/NCI, 2004)
# Toxic doses and inconclusive results are not listed.
# Test system: BDF1 mice, B16 melanoma ip, median survival T/C
# Assay: NCI In Vivo Anticancer Drug Screen. Data for tumor model B16 Melanoma (intraperitoneal) in B6D2F1 (BDF1) mice
# Details: endpoint: median survival time, higher = longer survival
# Outline: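 Mice with transplantable tumors; drug vs vehicle groups; endpoint survival or tumor size; value = T/C.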
# [1] = dose: 6.25 mg/kg/injection, schedule: Q01DX009 (ip), vehicle: saline with Tween-80
# [2] = dose: 12.5 mg/kg/injection, schedule: Q01DX009 (ip), vehicle: saline with Tween-80
# [3] = dose: 25.0 mg/kg/injection, schedule: Q01DX009 (ip), vehicle: saline with Tween-80
# [4] = dose: 25.0 mg/kg/injection, schedule: Q01DX009 (ip), vehicle: suspension in saline
# [5] = dose: 50.0 mg/kg/injection, schedule: Q01DX009 (ip), vehicle: suspension in saline
# [6] = dose: 100.0 mg/kg/injection, schedule: Q01DX009 (ip), vehicle: suspension in saline
# [7] = dose: 6.25 mg/kg/injection, schedule: Q01DX009 (ip), vehicle: saline
# [8] = dose: 50.0 mg/kg/injection, schedule: Q01DX009 (ip), vehicle: saline with Tween-80
# [9] = dose: 100.0 mg/kg/injection, schedule: Q01DX009 (ip), vehicle: saline with Tween-80
smiles,measurement,setting,value
ClCc1cccc2c(CCl)cccc12,T/C,[1],98 % of control
same,T/C,[2],98 % of control
same,T/C,[3],102 % of control
same,T/C,[4],100 % of control
same,T/C,[5],107 % of control
same,T/C,[6],90 % of control
CC(N)C(O)c1cccc(O)c1 (stereo not given),T/C,[7],94 % of control
same,T/C,"dose: 12.5 mg/kg/injection, schedule: Q01DX009 (ip), vehicle: saline",102 % of control
same,T/C,"dose: 25.0 mg/kg/injection, schedule: Q01DX009 (ip), vehicle: saline",105 % of control
same,T/C,"dose: 50.0 mg/kg/injection, schedule: Q01DX009 (ip), vehicle: saline",100 % of control
NC(CC(=O)O)CC(=O)O,T/C,[4],91 % of control
same,T/C,[5],92 % of control
same,T/C,[6],103 % of control
same,T/C,"dose: 200.0 mg/kg/injection, schedule: Q01DX009 (ip), vehicle: suspension in saline",100 % of control
same,T/C,"dose: 400.0 mg/kg/injection, schedule: Q01DX009 (ip), vehicle: suspension in saline",90 % of control
CC1(C)N=C(N)N=C(N)N1c1ccc(F)c(C(F)(F)F)c1,T/C,"dose: 3.12 mg/kg/injection, schedule: Q01DX009 (ip), vehicle: saline",96 % of control
same,T/C,[7],118 % of control
same,T/C,"dose: 12.0 mg/kg/injection, schedule: Q01DX009 (ip), vehicle: saline",120 % of control
C[C@@H]1CC[C@@]2(NC1)O[C@H]1C[C@H]3[C@@H]4CC=C5C[C@@H](O)CC[C@]5(C)[C@H]4CC[C@]3(C)[C@H]1[C@@H]2C,T/C,"dose: 12.5 mg/kg/injection, schedule: Q01DX009 (ip), vehicle: Klucel (hydroxypropylcellulose) (HPC)",95 % of control
Cc1noc(/N=C/c2cccc(Cl)c2)c1C,T/C,"dose: 175.0 mg/kg/injection, schedule: Q04DX003 (ip), vehicle: Klucel (hydroxypropylcellulose) (HPC)",107 % of control
same,T/C,"dose: 265.0 mg/kg/injection, schedule: Q04DX003 (ip), vehicle: Klucel (hydroxypropylcellulose) (HPC)",116 % of control
same,T/C,"dose: 400.0 mg/kg/injection, schedule: Q04DX003 (ip), vehicle: Klucel (hydroxypropylcellulose) (HPC)",109 % of control
same,T/C,"dose: 600.0 mg/kg/injection, schedule: Q04DX003 (ip), vehicle: Klucel (hydroxypropylcellulose) (HPC)",107 % of control
CNC(=O)Nc1nccs1,T/C,[3],97 % of control
same,T/C,[8],95 % of control
same,T/C,[9],106 % of control
same,T/C,"dose: 200.0 mg/kg/injection, schedule: Q01DX009 (ip), vehicle: saline with Tween-80",91 % of control
C1CC[N-]CC1.[Cl][Pt+2][Cl].[NH-]C1CC1,T/C,"dose: 3.12 mg/kg/injection, schedule: Q01DX009 (ip), vehicle: water",105 % of control
same,T/C,"dose: 3.13 mg/kg/injection, schedule: Q01DX009 (ip), vehicle: water",151 % of control
same,T/C,"dose: 6.25 mg/kg/injection, schedule: Q01DX009 (ip), vehicle: water",152 % of control
same,T/C,"dose: 12.5 mg/kg/injection, schedule: Q01DX009 (ip), vehicle: water",119 % of control
CCCS(=O)[O-].CCCS(=O)[O-].[Zn+2],T/C,"dose: 0.05 mg/kg/injection, schedule: Q01DX009 (ip), vehicle: saline",106 % of control
same,T/C,"dose: 0.1 mg/kg/injection, schedule: Q01DX009 (ip), vehicle: saline",91 % of control
same,T/C,"dose: 0.2 mg/kg/injection, schedule: Q01DX009 (ip), vehicle: saline",103 % of control
same,T/C,"dose: 0.4 mg/kg/injection, schedule: Q01DX009 (ip), vehicle: saline",101 % of control
same,T/C,"dose: 0.8 mg/kg/injection, schedule: Q01DX009 (ip), vehicle: saline",96 % of control
same,T/C,"dose: 1.6 mg/kg/injection, schedule: Q01DX009 (ip), vehicle: saline",100 % of control
same,T/C,"dose: 3.2 mg/kg/injection, schedule: Q01DX009 (ip), vehicle: saline",95 % of control
same,T/C,"dose: 6.4 mg/kg/injection, schedule: Q01DX009 (ip), vehicle: saline",103 % of control
same,T/C,"dose: 12.8 mg/kg/injection, schedule: Q01DX009 (ip), vehicle: saline",101 % of control
NC(=O)CC(NC(=O)CCl)C(=O)O (stereo not given),T/C,[8],98 % of control
same,T/C,[9],99 % of control
CC(=O)CC(=O)Oc1ccccc1OC(C)=O,T/C,"dose: 50.0 mg/kg/injection, schedule: Q01DX009 (ip), vehicle: Klucel (hydroxypropylcellulose) (HPC)",94 % of control
same,T/C,"dose: 100.0 mg/kg/injection, schedule: Q01DX009 (ip), vehicle: Klucel (hydroxypropylcellulose) (HPC)",100 % of control
COc1ccc(N=C=S)cc1N=C=S,T/C,[1],102 % of control
same,T/C,"dose: 6.25 mg/kg/injection, schedule: Q04DX003 (ip), vehicle: saline with Tween-80",105 % of control
same,T/C,[2],92 % of control
same,T/C,"dose: 12.5 mg/kg/injection, schedule: Q04DX003 (ip), vehicle: saline with Tween-80",115 % of control
same,T/C,[3],100 % of control
same,T/C,"dose: 25.0 mg/kg/injection, schedule: Q04DX003 (ip), vehicle: saline with Tween-80",113 % of control
